Assay results published in patent US20140357666A1, “COMPOUNDS FOR INHIBITING THE INTERACTION OF BCL2 WITH BINDING PARTNERS” (NOVARTIS AG, priority 2011, published 2014).
pIC50: −log10 of the molar value.

Columns and labels:
[1] = biological target: BCL-2 binding to biotinylated BAD peptide (Homo sapiens, UniProt P10415); test: SPR (Biacore) solution inhibition assay, BCL-2 binding to BAD peptide surface; conditions: read-out: BCL2_SPR IC50 BAD
Excerpt: (§1) The present method includes utility of a Surface plasmon resonance (SPR)-based biosensor (Biacore™, GE Healthcare, Uppsala, Sweden) to characterize BCL-2 inhibitors.
(§2) Biacore™ utilizes the phenomenon of surface plasmon resonance (SPR) to detect and measure binding interactions. In a typical Biacore experiment, one of the interacting molecules (ligand) is immobilized on a flexible dextran matrix while the interacting partner (analyte) is allowed to flow across that surface. A binding interaction results in an increase in mass on the sensor surface and a corresponding direct change in the refractive index of the medium in the vicinity of the sensor surface. Changes in refractive index or signal are recorded in resonance units (R.U.) Signal changes due to association and dissociation of complexes are monitored in a non-invasive manner, continuously and in real-time, the results of which are reported in the form of a sensorgram.
(§3) The SPR assay is configured to examine solution inhibition of BCL-2 binding to peptide derivatized sensor surfaces to generate IC50 values as a measure of inhibitor potency.
(§4) Biacore™ A100 (GE Healthcare, Uppsala, Sweden) was used to conduct all experiments reported herein. Sensor surface preparation and all interaction analyses experiments were performed at 25° C. Reagents were purchased from GE Healthcare. Running buffer containing 10 mM Hepes, pH7.4, 150 mM sodium chloride, 1.25 mM Dithiothreitol, 3% Dimethyl sulfoxide and 0.05% polysorbate 20 were utilized throughout all analyses.
(§5) Biotinylated BAK, BAD and NOXA peptides were diluted to 10 nM in running buffer and captured onto a sensor surface pre-derivatized with streptavidin (sensor chip SA) to peptide surface densities in the range 50-100 R.U. Peptide captured surfaces were blocked with 500 μM PEO2-Biotin.
(§6) Interaction analyses were performed by first equilibrating each sample within a 6 point three fold compound dilution series in the range 16 μM to […] with 56 nM BCL-2 for one hour during instrument start-up procedures. Protein compound mixtures were then injected over each peptide surface in parallel for 60 seconds at a flow-rate of 30 μL/min. 56 nM BCL-2 control samples were also prepared and run at regular intervals during the assay. Surface regeneration was performed at the end of each analysis cycle by two 30 second injections of 10 mM Glycine, pH 2.5, 1M Sodium Chloride, 0.05% polysorbate 20. Samples and control compound samples were run in duplicate and controls are also run at regular intervals during the assay to monitor surface and assay performance.
(§7) Data analyses are carried out using Biacore™ A100 evaluation software v1.1 to validate assay quality. Binding level report points were used relative to BCL-2 control samples to calculate % inhibition values for each compound protein mixture. […] The range of data shown in table 1 represents the high and low IC50 values obtained from multiple experiments.

[2] = biological target: BCL-2 binding to biotinylated BAK peptide (Homo sapiens, UniProt P10415); test: SPR (Biacore) solution inhibition assay, BCL-2 binding to BAK peptide surface; conditions: read-out: BCL2_SPR IC50 BAK
BCL-2 binding to biotinylated BAK peptide, sequence (P10415 whole entry): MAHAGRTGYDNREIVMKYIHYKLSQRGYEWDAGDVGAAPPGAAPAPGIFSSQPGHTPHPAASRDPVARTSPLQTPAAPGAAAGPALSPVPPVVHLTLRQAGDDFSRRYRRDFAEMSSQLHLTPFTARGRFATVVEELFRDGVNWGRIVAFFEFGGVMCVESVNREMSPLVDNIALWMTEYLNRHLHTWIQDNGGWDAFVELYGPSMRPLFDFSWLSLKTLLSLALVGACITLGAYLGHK
Excerpt: as §1, §2, §3, §4, §5, §6, §7

BCL-2 binding to biotinylated BAD peptide, sequence (P10415 whole entry): as above

Row | pIC50 [1] | pIC50 [2] | SMILES
1 | 7.18 to 7.28 | 7.27 to 7.34 | CCCCN(CCCC)C(=O)c1cc(C)n(-c2ccc(NC(=O)NCc3ccccc3)cc2C(=O)N2Cc3ccccc3C[C@H]2CO)n1 [Example 1, (S)-1-(4-(3-benzylureido)-2-(3-(hydroxymethyl)-1,2,3,4-tetrahydroisoquinoline-2-carbonyl)phenyl)-N,N-dibutyl-5-methyl-1H-pyrazole-3-carboxamide]
2 | 6.21 to 6.24 | 6.37 to 6.39 | CCCCN(CCCC)C(=O)c1cc(C)n(-c2ccc(NC(=O)NCC)cc2C(=O)N2Cc3ccccc3C[C@H]2CO)n1 [Example 2]
3 | 5.99 to 6.05 | 6.05 to 6.09 | CCCCN(CCCC)C(=O)c1cc(C)n(-c2ccc(NC(=O)Nc3cccc(OC)c3)cc2C(=O)N2Cc3ccccc3C[C@H]2CO)n1 [Example 3]
4 | 7.04 to 7.06 | 7.12 to 7.14 | CCCCN(CCCC)C(=O)c1cc(C)n(-c2ccc(NC(=O)N[C@@H](C)c3ccccc3)cc2C(=O)N2Cc3ccccc3C[C@H]2CO)n1 [Example 4]
5 | 7.11 to 7.14 | 7.11 to 7.14 | CCCCN(CCCC)C(=O)c1cc(C)n(-c2ccc(NC(=O)NCc3ccccc3OC)cc2C(=O)N2Cc3ccccc3C[C@H]2CO)n1 [Example 5]
6 | 6.93 to 6.97 | 7.05 to 7.08 | CCCCN(CCCC)C(=O)c1cc(C)n(-c2ccc(NC(=O)NCc3ccc(OC)cc3)cc2C(=O)N2Cc3ccccc3C[C@H]2CO)n1 [Example 6]
7 | 6.97 to 6.99 | 7.03 to 7.06 | CCCCN(CCCC)C(=O)c1cc(C)n(-c2ccc(NC(=O)NCc3ccccc3Cl)cc2C(=O)N2Cc3ccccc3C[C@H]2CO)n1 [Example 7]
8 | 6.78 to 6.81 | 6.83 to 6.85 | CCCCN(CCCC)C(=O)c1cc(C)n(-c2ccc(NC(=O)NCc3ccc(Cl)cc3)cc2C(=O)N2Cc3ccccc3C[C@H]2CO)n1 [Example 8]
9 | 6.45 to 6.48 | 6.56 to 6.60 | CCCCN(CCCC)C(=O)c1cc(C)n(-c2ccc(NC(=O)N[C@H](C)c3ccccc3)cc2C(=O)N2Cc3ccccc3C[C@H]2CO)n1 [Example 9]
10 | 6.11 to 6.14 | 6.19 to 6.20 | CCCCN(CCCC)C(=O)c1cc(C)n(-c2ccc(NC(=O)Nc3ccc(C)c(C)c3)cc2C(=O)N2Cc3ccccc3C[C@H]2CO)n1 [Example 10]
11 | 5.49 to 5.52 | 5.56 to 5.57 | CCCCN(CCCC)C(=O)c1cc(C)n(-c2ccc(NC(=O)Nc3ccc(F)c(C(F)(F)F)c3)cc2C(=O)N2Cc3ccccc3C[C@H]2CO)n1 [Example 11]
12 | < 4.80 | < 4.80 | CCCCN(CCCC)C(=O)c1cc(C)n(-c2ccc(NC(=O)Nc3ccccc3Oc3ccccc3)cc2C(=O)N2Cc3ccccc3C[C@H]2CO)n1 [Example 12]
13 | < 4.80 | 5.04 to 5.06 | CCCCN(CCCC)C(=O)c1cc(C)n(-c2ccc(NC(=O)N[C@@H]3C[C@H]3c3ccccc3)cc2C(=O)N2Cc3ccccc3C[C@H]2CO)n1 [Example 13]
14 | 6.29 to 6.31 | 6.45 to 6.46 | CCCCN(CCCC)C(=O)c1cc(C)n(-c2ccc(NC(=O)NC(C)C)cc2C(=O)N2Cc3ccccc3C[C@H]2CO)n1 [Example 14]
15 | 6.81 to 6.82 | – | CCCCN(CCCC)C(=O)c1cc(C)n(-c2ccc(NC(=O)NCCc3ccccc3)cc2C(=O)N2Cc3ccccc3C[C@H]2CO)n1 [Example 15]
16 | 6.01 to 6.10 | 6.02 to 6.09 | CCCCN(CCCC)C(=O)c1cc(C)n(-c2ccc(NC(=O)Nc3ccc(SC)cc3)cc2C(=O)N2Cc3ccccc3C[C@H]2CO)n1 [Example 16]
17 | 6.97 to 7.05 | 7.07 | CCCCN(CCCC)C(=O)c1cc(C)n(-c2ccc(NC(=O)NCc3cccc(C)c3)cc2C(=O)N2Cc3ccccc3C[C@H]2CO)n1 [Example 17]
18 | 5.75 to 5.76 | 5.70 to 5.71 | CCCCN(CCCC)C(=O)c1cc(C)n(-c2ccc(NC(=O)Nc3ccc(-c4ccccc4)cc3)cc2C(=O)N2Cc3ccccc3C[C@H]2CO)n1 [Example 18]
19 | 6.09 to 6.14 | 6.07 to 6.13 | CCCCN(CCCC)C(=O)c1cc(C)n(-c2ccc(NC(=O)N[C@H](C)c3ccc(OC)cc3)cc2C(=O)N2Cc3ccccc3C[C@H]2CO)n1 [Example 19]
20 | 7.12 to 7.15 | 7.09 to 7.16 | CCCCN(CCCC)C(=O)c1cc(C)n(-c2ccc(NC(=O)N[C@@H](C)c3ccc(OC)cc3)cc2C(=O)N2Cc3ccccc3C[C@H]2CO)n1 [Example 20]

Row | pIC50 [1] | pIC50 [2] | SMILES
21 | 5.46 to 5.58 | 5.50 to 5.56 | CCCCN(CCCC)C(=O)c1cc(C)n(-c2ccc(NC(=O)Nc3ccccc3OC)cc2C(=O)N2Cc3ccccc3C[C@H]2CO)n1 [Example 21]
22 | 5.66 to 5.73 | 5.76 to 5.80 | CCCCN(CCCC)C(=O)c1cc(C)n(-c2ccc(NC(=O)Nc3ccc(C#N)cc3)cc2C(=O)N2Cc3ccccc3C[C@H]2CO)n1 [Example 22]
23 | 7.33 to 7.34 | 7.38 to 7.43 | CCCCN(CCCC)C(=O)c1cc(C)n(-c2ccc(NC(=O)N[C@@H](C)c3cccc(OC)c3)cc2C(=O)N2Cc3ccccc3C[C@H]2CO)n1 [Example 23]
24 | 6.59 to 6.64 | 6.75 to 6.84 | CCCCN(CCCC)C(=O)c1cc(C)n(-c2ccc(NC(=O)Nc3ccc(OC)cc3C)cc2C(=O)N2Cc3ccccc3C[C@H]2CO)n1 [Example 25]
25 | 5.61 to 5.68 | 5.77 to 5.78 | CCCCN(CCCC)C(=O)c1cc(C)n(-c2ccc(NC(=O)Nc3cccs3)cc2C(=O)N2Cc3ccccc3C[C@H]2CO)n1 [Example 26]
26 | 6.02 to 6.05 | 6.06 to 6.07 | CCCCN(CCCC)C(=O)c1cc(C)n(-c2ccc(NC(=O)Nc3ccc(Cl)cc3C)cc2C(=O)N2Cc3ccccc3C[C@H]2CO)n1 [Example 27]
27 | 6.16 to 6.29 | 6.21 to 6.26 | CCCCN(CCCC)C(=O)c1cc(C)n(-c2ccc(NC(=O)Nc3ccccc3OCC)cc2C(=O)N2Cc3ccccc3C[C@H]2CO)n1 [Example 28]
28 | 5.59 to 5.61 | 5.61 to 5.74 | CCCCN(CCCC)C(=O)c1cc(C)n(-c2ccc(NC(=O)Nc3ccc4ccccc4c3)cc2C(=O)N2Cc3ccccc3C[C@H]2CO)n1 [Example 29]
29 | 6.62 to 6.68 | 6.69 to 6.72 | CCCCN(CCCC)C(=O)c1cc(C)n(-c2ccc(NC(=O)Nc3c(C)cccc3C)cc2C(=O)N2Cc3ccccc3C[C@H]2CO)n1 [Example 30]
30 | 5.60 to 5.63 | 5.80 to 5.81 | CCCCN(CCCC)C(=O)c1cc(C)n(-c2ccc(NC(=O)Nc3cccc(Cc4ccccc4)c3)cc2C(=O)N2Cc3ccccc3C[C@H]2CO)n1 [Example 31]
31 | 6.33 to 6.35 | 6.55 to 6.56 | CCCCN(CCCC)C(=O)c1cc(C)n(-c2ccc(NC(=O)NC3CCCC3)cc2C(=O)N2Cc3ccccc3C[C@H]2CO)n1 [Example 32]
32 | 6.35 to 6.36 | 6.42 to 6.47 | CCCCN(CCCC)C(=O)c1cc(C)n(-c2ccc(NC(=O)Nc3cccc(Cl)c3C)cc2C(=O)N2Cc3ccccc3C[C@H]2CO)n1 [Example 33]
33 | 6.15 to 6.21 | 6.18 to 6.20 | CCCCN(CCCC)C(=O)c1cc(C)n(-c2ccc(NC(=O)Nc3c(C)cccc3CC)cc2C(=O)N2Cc3ccccc3C[C@H]2CO)n1 [Example 34]
34 | 5.41 to 5.50 | 5.51 to 5.52 | CCCCN(CCCC)C(=O)c1cc(C)n(-c2ccc(NC(=O)Nc3ccc(F)c(F)c3)cc2C(=O)N2Cc3ccccc3C[C@H]2CO)n1 [Example 35]
35 | < 4.80 | < 4.80 | CCCCN(CCCC)C(=O)c1cc(C)n(-c2ccc(NC(=O)Nc3cc(Cl)cc(Cl)c3)cc2C(=O)N2Cc3ccccc3C[C@H]2CO)n1 [Example 36]
36 | 5.37 to 5.39 | 5.42 | CCCCN(CCCC)C(=O)c1cc(C)n(-c2ccc(NC(=O)Nc3cc(F)cc(F)c3)cc2C(=O)N2Cc3ccccc3C[C@H]2CO)n1 [Example 37]
37 | 6.21 to 6.28 | 6.38 to 6.42 | CCCCN(CCCC)C(=O)c1cc(C)n(-c2ccc(NC(=O)Nc3ccc(OC)c(OC)c3)cc2C(=O)N2Cc3ccccc3C[C@H]2CO)n1 [Example 38]
38 | 6.07 to 6.12 | 6.17 to 6.18 | CCCCN(CCCC)C(=O)c1cc(C)n(-c2ccc(NC(=O)Nc3ccccc3Cc3ccccc3)cc2C(=O)N2Cc3ccccc3C[C@H]2CO)n1 [Example 39]
39 | 6.52 to 6.69 | 6.65 to 6.71 | CCCCN(CCCC)C(=O)c1cc(C)n(-c2ccc(NC(=O)Nc3c(Cl)cccc3Cl)cc2C(=O)N2Cc3ccccc3C[C@H]2CO)n1 [Example 40]
40 | 6.01 to 6.03 | 6.01 to 6.05 | CCCCN(CCCC)C(=O)c1cc(C)n(-c2ccc(NC(=O)Nc3ccccc3OC(F)(F)F)cc2C(=O)N2Cc3ccccc3C[C@H]2CO)n1 [Example 41]
